The values that follow come from patent US6110907A, “Synthesis of platinum complexes and uses thereof” (Dalian Institute of Chemical Physics, Chinese Academy of …, priority 1998, dated 2000).

For data set [1] the following is noted: background statement; cited from earlier work.
The next data set has as its system liver. Nature of the data set: 5-Day Parenteral Acute Toxicity Trial, liver histopathology. In kind it is in vivo, ICR mice. The conditions noted are these: 1/12 LD10/day for 5 days, i.p., per animal. On the procedure: (§1) Conditions: Temperature: 22° C.±3° C.; Relative humidity: 30-70 T; Light: 12:12. Animals were housed in twos or threes depending on group numbers.
(§2) Histopathology of liver and kidney were examined for each animal.

For data set [2] the following is noted: cited from earlier work.
The next data set has as its system kidney. Nature of the data set: 5-Day Parenteral Acute Toxicity Trial, kidney histopathology. The format is in vivo, ICR mice. The conditions noted are these: 1/12 LD10/day for 5 days, i.p., per animal. On the procedure: as §1, §2
The subject of another data set is CC3. Description: In vitro antitumor activity, MTT assay, CC3. In kind it is cell-based, human. The conditions noted are these: CC3, 48 hours. How it is done:
(§3) Drugs: Drugs to be tested were dissolved in complete medium at twice the highest concentration to be used, followed by filter (0.22 μm) sterilization. A series of log dilutions were made of each drug solution using complete medium and stored at r.t. until use.
(§4) Cells: L1210, H-522 (human lung), HT-29 (human colon), Hela, CC3 (human cervix) were obtained from the American Type Culture Collection (ATCC). CNE-1 and CNE-2 (human nasopharyngeal) were obtained from The Hong Kong Cancer Institute, The Chinese University of Hong Kong.
(§5) In vitro drug exposure: Trypsinised cells were adjusted to a concentration of 3×10^4 cells/ml in complete medium and for each drug to be tested, 0.1 ml of the cell suspension was added to each of 48 wells of a 96-well microculture plate. The plate was then incubated at standard conditions for 24 hours in order to allow the cells to attach to the bottom of the well. To each well of the control cultures, 0.1 ml of complete medium was added. […]
(§6) MTT assay: The MTT (tetrazolium) assay was used to determine the growth-inhibitory effects of different drugs. […] The amount of reduced MTT was determined by spectrophotometric means (540 nm).
(§7) Data analysis: The mean OD for all 48 control wells was determined. For each concentration of each drug, the mean OD of the 6 wells was determined and the "Percent of Control" values were determined and plotted. […]

Another data set relates to H522. Description: In vitro antitumor activity, MTT assay, H522. The format is cell-based, human. The conditions noted are these: H522, 48 hours. How it is done: as §3, §4, §5, §6, §7
Data set [3] deals with ICR mice. Description: Toxicity testing, LD50 (Example 14). The format is in vivo. The conditions noted are these: in 0.9% NaCl, observed for 6 days. On the procedure: The toxicity tests used ICR mice (30-40 g), each group containing 12-13 mice. […] The test and control compounds were dissolved in 0.9% NaCl to an appropriate concentration.
For the next data set, the system named is CNE-1. Description: In vitro antitumor activity, MTT assay, CNE-1. In kind it is cell-based, human. The conditions noted are these: CNE-1, 48 hours. How it is done:
as §3, §4, §5, §6, §7

The subject of a further data set is L1210. Nature of the data set: In vitro antitumor activity, MTT assay, L1210. The conditions noted are these: L1210, 48 hours. In kind it is cell-based, mouse. How it is done:
as §3, §4, §5, §6, §7

A further data set deals with Hela. Description: In vitro antitumor activity, MTT assay, Hela. The conditions noted are these: 48 hours. The format is cell-based, human. On the procedure: as §3, §4, §5, §6, §7
The test system of another data set is HT29. Nature of the data set: In vitro antitumor activity, MTT assay, HT-29. In kind it is cell-based, human. The conditions noted are these: HT29, 48 hours. On the procedure:
as §3, §4, §5, §6, §7

The test system of data set [4] is ICR mice. Nature of the data set: In vivo toxicity, LD50 (second series). The conditions noted are these: male, intraperitoneal. How it is done:
Animals: ICR mice, male, 30 g, 10 animals per test/control group.
Dose: Test/control drug were dissolved in normal saline. Four doses, each increasing by 10-20% were injected intraperitoneally into mice. 10 mice were used for each dose point.

A further data set concerns CNE-2. Nature of the data set: In vitro antitumor activity, MTT assay, CNE-2. The format is cell-based, human. The conditions noted are these: CNE-2, 48 hours. On the procedure:
as §3, §4, §5, §6, §7

Like-named read-outs stand apart in the source and are kept apart here.

For `C[C@@]12C(=O)OC(=O)[C@]1(C)[C@H]1CC[C@@H]2O1` [Cantharidin, cantharidin], in [1], the LD50 is listed as 1 mg/kg. For the same compound, the “LIVER Normal” value in the data set on liver (female) and with liver (male) was “√” in each case. In addition, the side effects result in data set [2] (background statement) was “nausea and vomiting, dysphagia, hematemesis, gross hematuria and dysuria”; in data set [2] (background statement, listed as cantharidin), “severe side-effects such as nausea, vomiting and diarrhoea”. Further, the “KIDNEY Normal” value with kidney (female) and with kidney (male) was “√” in each case.

As to `N.N.O=C([O-])C1(C(=O)[O-])CCC1.[Pt+2]` [Carboplatin, carboplatin], the “LIVER Normal” value in the data set with liver (female) and in the data set with liver (male) was “√” each time. Further, the side effects result in [2] (in vivo) was “strongly irritates the gastrointestinal tract”. Where the note is “pH 6”, this compound registered a Solubility in water of 10000 µg/mL. Further, the Solubility (water) was about 10000 µg/mL. Moreover, the half-maximal inhibitory concentration (IC50) in the data set with CC3 came out at 205 µM; in the data set on H522, 287 µM; with CNE-1 it was 174 µM; in the data set on L1210 it was 48.8 µM; in the data set with Hela, 244 µM; with HT29 it was 734 µM. The half-maximal inhibitory concentration (IC50) in the data set on CNE-2 was found to be 126 µM. Moreover, the values for the LD50 in the data set with ICR mice [3] and with ICR mice [4] were 190 mg/kg and 203.20 mg/kg, respectively. The “KIDNEY Normal” value in the data set on kidney (female) and in the data set with kidney (male) was “√” in each case.

On to `N.N.[Cl][Pt][Cl]` [Cisplatin, cisplatin], for which the IC50 in the data set with CC3 was 6.25 µM; in the data set with H522, 12.1 µM; in the data set with CNE-1, 6.36 µM; in the data set on L1210, 1.63 µM; with Hela, 8.56 µM; in the data set with HT29, 38.3 µM. Further, the half-maximal inhibitory concentration (IC50) in the data set on CNE-2 was found to be 6.04 µM.

Regarding `O=C(O)C1C2CCC(O2)C1C(=O)O` (centres unmarked) [corresponding dicarboxylic acid], in data set [1], the LD50 is given as 14 mg/kg.

For `O=C1OC(=O)C2C3CCC(O3)C12` (centres unmarked) [demethyl cantharidin], in data set [1], the 50% lethal dose (LD50) was 4 mg/kg.
